Active and inactive are the calls of the source. The rule behind the calls is not given here.
Tests used:
Rattus norvegicus [1] = assay: Reduction in body weight gain in 24 hrs food-deprived Sprague-Dawley rat at 27 and 54 mg/kg, ip followed by standard chow pellets feeding and measured for 6.5 hrs post dose; type: functional, organism-based
Rattus norvegicus [2] = assay: Reduction in 24 hrs food intake in 24 hrs food-deprived Sprague-Dawley rat at 6.75 to 54 mg/kg, ip followed by standard chow pellets feeding and measured for 6.5 hrs post dose; type: functional, organism-based
[3] = target: G-protein coupled receptor 6 (Homo sapiens) (UniProt P46095); assay: Activity at rat G-protein GSalpha fused GPR6 (unknown origin) expressed in HEK293 cell membranes assessed as effect on [35S]GTPgammaS binding pre-incubated for 5 to 10 mins followed by 60 mins incubation in presence of [35S]GTPgammaS by scintillation proximity assay; type: functional
Rattus norvegicus [4] = assay: Induction of sedation in ip dosed Sprague-Dawley rat assessed as relaxed behavior after 16 hrs post dose; type: organism-based; conditions: in vivo
Rattus norvegicus [5] = assay: Reduction in body weight gain in non-food-deprived Sprague-Dawley rat at 13.5 mg/kg, ip qd for 22 days measured between day-4 and day-31 post dose; type: functional, organism-based
Rattus norvegicus [6] = assay: Induction of sedation in non-food-deprived Sprague-Dawley rat subjected to pre-pulse of 12 db followed by 120 db pulse assessed as animal jump height level at 13.5 and 54 mg/kg, po dosed […] before test; type: organism-based; conditions: in vivo
Rattus norvegicus [7] = assay: Effect on motor function in ip dosed Sprague-Dawley rat assessed as effect on locomotor activity after 16 hrs post dose; type: ADME, organism-based; conditions: in vivo
Rattus norvegicus [8] = assay: Reduction in water intake in 24 hrs food-deprived Sprague-Dawley rat at 6.75 to 54 mg/kg, ip followed by standard chow pellets feeding and measured for 6.5 hrs post dose; type: functional, organism-based
Rattus norvegicus [9] = assay: Effect on motor function in ip dosed Sprague-Dawley rat assessed as effect on locomotor activity after 1.5 hrs post dose; type: ADME, organism-based; conditions: in vivo
Rattus norvegicus [10] = assay: Reduction in food intake in 24 hrs food-deprived Sprague-Dawley rat assessed as food intake level at 54 mg/kg, po followed by standard chow pellets feeding and measured 8 hrs post dose (reference value: 14g); type: functional
Rattus norvegicus [11] = assay: Reduction in water intake in non-food-deprived Sprague-Dawley rat at 6.75 to 54 mg/kg, ip dosed 30 mins before beginning of dark cycle followed by exposure to standard chow pellets and measured 15.5 hrs post dose; type: functional, organism-based
Rattus norvegicus [12] = assay: Induction of sedation in ip dosed Sprague-Dawley rat assessed as absence of anxiety-like behavior after 16 hrs post dose; type: organism-based; conditions: in vivo
Rattus norvegicus [13] = assay: Reduction in water intake in 24 hrs food-deprived Sprague-Dawley rat assessed reduction in water intake level at 100 nmol, icv relative to control; type: functional
Rattus norvegicus [14] = assay: Reduction in body weight gain in non-food-deprived Sprague-Dawley rat at 6.75 to 54 mg/kg, ip dosed 30 mins before beginning of dark cycle followed by exposure to standard chow pellets and measured 15.5 hrs post dose; type: functional, organism-based
Rattus norvegicus [15] = assay: Reduction in body weight gain in 24 hrs food-deprived Sprague-Dawley rat at 6.75 to 54 mg/kg, ip followed by standard chow pellets feeding and measured for 6.5 hrs post dose; type: functional, organism-based
Rattus norvegicus [16] = assay: Induction of sedation in non-food-deprived Sprague-Dawley rat subjected to pre-pulse of 12 db followed by 120 db pulse assessed as animal jump height level at 6.75 mg/kg, po dosed […] before test; type: organism-based; conditions: in vivo
Rattus norvegicus [17] = assay: Reduction in body weight gain in non-food-deprived Sprague-Dawley rat at 13.5 mg/kg, ip qd for 22 days measured on day-1 and day-3 post dose; type: functional, organism-based
Rattus norvegicus [18] = assay: Reduction in food intake in 24 hrs food-deprived Sprague-Dawley rat at 25 to 100 nmol, icv measured 2.5 hrs post dose relative to control; type: functional
Rattus norvegicus [19] = assay: Reduction in body weight gain in non-food-deprived Sprague-Dawley rat at 13.5 mg/kg, ip qd for 22 days measured between day-31 and day-60 post dose; type: functional, organism-based

Sequence of G-protein coupled receptor 6 (Homo sapiens) (P46095 whole entry, the tested form may be a part): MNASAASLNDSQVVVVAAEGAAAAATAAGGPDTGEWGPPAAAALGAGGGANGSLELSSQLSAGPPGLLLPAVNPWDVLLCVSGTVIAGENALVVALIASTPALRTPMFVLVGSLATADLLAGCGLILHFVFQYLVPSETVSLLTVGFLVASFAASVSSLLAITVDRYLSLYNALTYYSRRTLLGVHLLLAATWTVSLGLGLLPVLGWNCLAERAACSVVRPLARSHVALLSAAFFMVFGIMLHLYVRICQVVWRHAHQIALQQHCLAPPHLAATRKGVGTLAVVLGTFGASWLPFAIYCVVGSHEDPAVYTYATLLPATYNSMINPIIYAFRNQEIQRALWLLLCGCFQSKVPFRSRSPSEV

Q: What does the source list for O=C(/N=C1\SSC2=NCCN21)c1cccs1?
A: Activity (Rattus norvegicus [1]): Active; Activity (Rattus norvegicus [2]): Active; Activity [3]: Active; Activity (Rattus norvegicus [4]): Toxic; Activity (Rattus norvegicus [5]): Active; Activity (Rattus norvegicus [6]): Toxic; Activity (Rattus norvegicus [7]): Toxic; Activity (Rattus norvegicus [8]): Active; Activity (Rattus norvegicus [9]): Non-toxic; Activity (Rattus norvegicus [10]): 16 g; Activity (Rattus norvegicus [11]): Active; Activity (Rattus norvegicus [12]): Toxic; inhibition (INH) (Rattus norvegicus [13]): <=50%; Activity (Rattus norvegicus [14]): Active; Activity (Rattus norvegicus [15]): Active; Activity (Rattus norvegicus [16]): Non-toxic; Activity (Rattus norvegicus [17]): Active; fold change (FC) (Rattus norvegicus [18]): <=6; Activity (Rattus norvegicus [19]): Active

Reference: ChEMBL document CHEMBL3714737, “Small molecule modulators of G protein-coupled receptor six” (2002)
